Reference: patent US20080207677A1, “Napthyridine Compounds As Rock Inhibitors” (GPC BIOTECH AG, priority 2004, published 2008)

Key:
[1] = molecular target: T1, recombinant human ROCK2 (amino acids 1-530, aminoterminal 6×His tag) (Homo sapiens, UniProt O75116); experiment: Determination of ROCK kinase activity, IMAP assay, ROCK2 human; format: biochemical; details: for IC50: in vitro kinase assay, ATP 34.8 μM; for inhibition at 10 µM: % inhibition of the protein kinase ROCK2 at a concentration of 10 μM
T1 construct: recombinant human ROCK2 (amino acids 1-530, aminoterminal 6×His tag); 6xHis (N)
Experimental: (§1) Determination of ROCK Kinase Activity
(§2) IC50 values for the various compounds were determined with recombinant human ROCK1 (amino acids 1-555, aminoterminal 6×His tag) and recombinant human ROCK2 (amino acids 1-530, aminoterminal 6×His tag) under the following reaction conditions:
• 11) Add 6 μl 8/6 fold concentrated Substrate+8/6 fold concentrated ATP in 1 fold concentrated Reaction Buffer to each well of Assay Plate • 12) Add 10.8 nl 740 fold concentrated Inhibitor in 100% DMSO to each well except to C− and C+ wells using pintool • 13) Add 10.8 nl 100% DMSO to C− and C+ wells using pintool • 14) Add 2 μl Reaction Buffer to C− wells • 15) Add 2 μl 4 fold concentrated Kinase in Reaction Buffer to each well except C− wells • 16) Incubate according to Reaction Time at room temperature • 17) Add 15 μl IMAP Binding Solution to each well • 18) Incubate according to IMAP Incubation Time at room temperature • 19) Measure Fluorescence Polarization • 20) Measure Fluorescence Intensity

[2] = molecular target: T2, recombinant human ROCK1 (amino acids 1-555, aminoterminal 6×His tag) (Homo sapiens, UniProt Q13464); experiment: Determination of ROCK kinase activity, IMAP assay, ROCK1 human; format: biochemical; details: in vitro kinase assay, ATP 38.9 μM
T2 construct: recombinant human ROCK1 (amino acids 1-555, aminoterminal 6×His tag); 6xHis (N)
Experimental: as §1, §2
• 1) Add 6 μl 8/6 fold concentrated Substrate+8/6 fold concentrated ATP in 1 fold concentrated Reaction Buffer to each well of Assay Plate • 2) Add 10.8 nl 740 fold concentrated Inhibitor in 100% DMSO to each well except to C− and C+ wells using pintool • 3) Add 10.8 nl 100% DMSO to C− and C+ wells using pintool • 4) Add 2 μl Reaction Buffer to C− wells • 5) Add 2 μl 4 fold concentrated Kinase in Reaction Buffer to each well except C− wells • 6) Incubate according to Reaction Time at room temperature • 7) Add 15 μl IMAP Binding Solution to each well • 8) Incubate according to IMAP Incubation Time at room temperature • 9) Measure Fluorescence Polarization • 10) Measure Fluorescence Intensity

T1 sequence (O75116 1-530): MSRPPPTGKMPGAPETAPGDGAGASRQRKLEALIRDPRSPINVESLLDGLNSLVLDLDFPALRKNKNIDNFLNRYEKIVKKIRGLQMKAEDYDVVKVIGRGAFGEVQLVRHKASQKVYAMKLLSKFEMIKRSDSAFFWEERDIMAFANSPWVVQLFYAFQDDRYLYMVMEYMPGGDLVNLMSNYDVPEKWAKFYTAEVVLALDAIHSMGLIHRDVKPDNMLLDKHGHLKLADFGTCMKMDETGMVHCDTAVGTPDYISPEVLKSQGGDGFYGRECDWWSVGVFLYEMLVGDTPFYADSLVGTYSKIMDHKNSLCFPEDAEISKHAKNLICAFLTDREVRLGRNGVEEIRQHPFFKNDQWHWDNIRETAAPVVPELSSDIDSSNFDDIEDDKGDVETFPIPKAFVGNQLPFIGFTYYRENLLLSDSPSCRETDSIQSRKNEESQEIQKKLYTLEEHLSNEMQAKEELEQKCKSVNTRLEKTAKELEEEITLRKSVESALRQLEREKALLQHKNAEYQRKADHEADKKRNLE
T2 sequence (Q13464 1-555): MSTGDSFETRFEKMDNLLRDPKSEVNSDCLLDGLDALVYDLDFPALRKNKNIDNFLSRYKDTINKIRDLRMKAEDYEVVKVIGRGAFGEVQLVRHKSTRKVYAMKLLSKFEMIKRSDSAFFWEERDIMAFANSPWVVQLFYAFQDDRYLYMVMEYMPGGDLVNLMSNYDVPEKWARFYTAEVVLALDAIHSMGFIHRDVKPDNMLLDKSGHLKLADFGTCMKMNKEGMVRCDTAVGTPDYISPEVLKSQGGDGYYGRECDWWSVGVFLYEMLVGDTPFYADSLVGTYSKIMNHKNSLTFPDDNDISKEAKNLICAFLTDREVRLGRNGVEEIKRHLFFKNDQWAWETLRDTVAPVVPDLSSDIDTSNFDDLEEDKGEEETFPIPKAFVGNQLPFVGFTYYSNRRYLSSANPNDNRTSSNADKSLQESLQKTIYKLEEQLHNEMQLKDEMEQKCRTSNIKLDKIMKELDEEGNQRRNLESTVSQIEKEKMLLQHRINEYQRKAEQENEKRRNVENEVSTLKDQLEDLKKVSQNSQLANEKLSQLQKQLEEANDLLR

## C[C@@H](NC(=O)c1ccc2cnccc2n1)c1ccc(Cl)cc1 [(R)-[1,6]Naphthyridine-2-carboxylic acid 1-(4-chloro-phenyl)-ethylamide]
[1]
  IC50: 0.36 µM

## Cc1ccc([C@@H](C)NC(=O)c2ccc3cnccc3n2)cc1 [(R)-[1,6]Naphthyridine-2-carboxylic acid 1-(4-methylphenyl)-ethylamide]
[1]
  IC50: 0.41 µM

## C[C@@H](NC(=O)c1ccc2cnccc2n1)c1ccc2ccccc2c1 [(R)-[1,6]Naphthyridine-2-carboxylic acid 1-(naphth-2-yl)-ethylamide]
[1]
  IC50: 0.88 µM
[2]
  IC50: 2.32 µM

## CC[C@@H](NC(=O)c1ccc2cnccc2n1)c1ccccc1 [(R)-[1,6]Naphthyridine-2-carboxylic acid 1-phenyl-propylamide]
[1]
  IC50: 0.16 µM

## NC(=O)[C@H](Cc1ccccc1)NC(=O)c1ccc2cnccc2n1 [(S)-[1,6]Naphthyridine-2-carboxylic acid (1-carbamoyl-2-phenyl-ethyl)-amide]
[1]
  IC50: 5.64 µM
[2]
  IC50: 8.16 µM

## NC(=O)[C@H](Cc1ccc(O)cc1)NC(=O)c1ccc2cnccc2n1 [(S)-[1,6]Naphthyridine-2-carboxylic acid [1-carbamoyl-2-(4-hydroxy-phenyl)-ethyl]-amide]
[1]
  IC50: 4.26 µM
[2]
  IC50: 6.83 µM

## O=C(NCc1cccc(Br)c1)c1ccc2cnccc2n1 [Compound 1, [1,6]Naphthyridine-2-carboxylic acid 3-bromo-benzylamide]
[1]
  inhibition at 10 µM: 87%
  IC50: 1.04 µM
[2]
  IC50: 0.91 µM

## O=C(NCc1ccccc1F)c1ccc2cnccc2n1 [Compound 2, [1,6]Naphthyridine-2-carboxylic acid 2-fluoro-benzylamide]
[1]
  IC50: 2.08 µM
[2]
  IC50: 0.79 µM

## O=C(NCc1ccc(Br)cc1)c1ccc2cnccc2n1 [Compound 3, [1,6]Naphthyridine-2-carboxylic acid 4-bromo-benzylamide]
[1]
  IC50: 1.33 µM
[2]
  IC50: 1.37 µM

## CC(NC(=O)c1ccc2cnccc2n1)c1ccccc1 (stereo not drawn) [Compound 4, [1,6]Naphthyridine-2-carboxylic acid (1-phenyl-ethyl)-amide]
[1]
  inhibition at 10 µM: 81%
  IC50: 1.59 µM
[2]
  IC50: 0.71 µM

## NC(=O)C(Cc1ccccc1)NC(=O)c1ccc2cnccc2n1 (stereo not drawn) [Compound 5, [1,6]Naphthyridine-2-carboxylic acid (1-carbamoyl-2-phenyl-ethyl)-amide]
[1]
  inhibition at 10 µM: 62%

## NC(=O)C(Cc1ccc(Cl)cc1)NC(=O)c1ccc2cnccc2n1 (stereo not drawn) [Compound 6, [1,6]Naphthyridine-2-carboxylic acid [1-carbamoyl-2-(4-chloro-phenyl)-ethyl]-amide]
[1]
  inhibition at 10 µM: 65%

## C[C@@H](NC(=O)c1ccc2cnccc2n1)c1ccccc1 [Compound 7, [1,6]Naphthyridine-2-carboxylic acid ((R)-1-phenyl-ethyl)-amide]
[1]
  inhibition at 10 µM: 88%
  IC50: 0.92 µM
[2]
  IC50: 1.13 µM

## C[C@H](NC(=O)c1ccc2cnccc2n1)c1ccccc1 [Compound 8, [1,6]Naphthyridine-2-carboxylic acid ((S)-1-phenyl-ethyl)-amide]
[1]
  inhibition at 10 µM: 37%

## CCC(NC(=O)c1ccc2cnccc2n1)c1cccc(Cl)c1 (stereo not drawn) [[1,6]Naphthyridine-2-carboxylic acid 1-(3-chlorophenyl)-propylamide]
[1]
  IC50: 0.38 µM
[2]
  IC50: 0.3 µM

## CC(NC(=O)c1ccc2cnccc2n1)c1ccc(Br)cc1 (stereo not drawn) [[1,6]Naphthyridine-2-carboxylic acid 1-(4-bromo-phenyl)-ethylamide]
[1]
  IC50: 0.89 µM
[2]
  IC50: 0.97 µM

## CC(NC(=O)c1ccc2cnccc2n1)c1ccc(Cl)cc1 (stereo not drawn) [[1,6]Naphthyridine-2-carboxylic acid 1-(4-chlorophenyl)-ethylamide]
[1]
  IC50: 0.77 µM
[2]
  IC50: 1.1 µM

## CCC(NC(=O)c1ccc2cnccc2n1)c1ccc(Cl)cc1 (stereo not drawn) [[1,6]Naphthyridine-2-carboxylic acid 1-(4-chlorophenyl)-propylamide]
[1]
  IC50: 0.48 µM
[2]
  IC50: 1.26 µM

## CC(NC(=O)c1ccc2cnccc2n1)c1ccc(F)cc1 (stereo not drawn) [[1,6]Naphthyridine-2-carboxylic acid 1-(4-fluorophenyl)-ethylamide]
[1]
  IC50: 0.34 µM
[2]
  IC50: 0.94 µM

## COc1ccc(C(C)NC(=O)c2ccc3cnccc3n2)cc1 (stereo not drawn) [[1,6]Naphthyridine-2-carboxylic acid 1-(4-methoxyphenyl)-ethylamide]
[1]
  IC50: 10.7 µM

## Cc1ccc(C(C)NC(=O)c2ccc3cnccc3n2)cc1 (stereo not drawn) [[1,6]Naphthyridine-2-carboxylic acid 1-(4-methylphenyl)-ethylamide]
[1]
  IC50: 1.41 µM
[2]
  IC50: 1.29 µM

## CCC(NC(=O)c1ccc2cnccc2n1)c1ccc(C)cc1 (stereo not drawn) [[1,6]Naphthyridine-2-carboxylic acid 1-(4-methylphenyl)-propylamide]
[1]
  IC50: 1.26 µM
[2]
  IC50: 0.79 µM

## CCC(NC(=O)c1ccc2cnccc2n1)c1cccs1 (stereo not drawn) [[1,6]Naphthyridine-2-carboxylic acid 1-(thiophen-2-yl)-propylamide]
[1]
  IC50: 1.01 µM

## CC(NC(=O)c1ccc2cnccc2n1)c1ccsc1 (stereo not drawn) [[1,6]Naphthyridine-2-carboxylic acid 1-(thiophen-3-yl)-ethylamide]
[1]
  IC50: 1.91 µM

## CCC(NC(=O)c1ccc2cnccc2n1)c1ccccc1 (stereo not drawn) [[1,6]Naphthyridine-2-carboxylic acid 1-phenyl-propylamide]
[1]
  IC50: 0.5 µM
[2]
  IC50: 0.66 µM

## O=C(NCCc1ccc(Br)cc1)c1ccc2cnccc2n1 [[1,6]Naphthyridine-2-carboxylic acid 2-(4-bromo-phenyl)-ethylamide]
[1]
  IC50: 1.52 µM
[2]
  IC50: 1.5 µM

## O=C(NCCc1ccc(Cl)cc1)c1ccc2cnccc2n1 [[1,6]Naphthyridine-2-carboxylic acid 2-(4-chloro-phenyl)-ethylamide]
[1]
  IC50: 5.7 µM
[2]
  IC50: 1.91 µM

## O=C(NCc1ccccc1Br)c1ccc2cnccc2n1 [[1,6]Naphthyridine-2-carboxylic acid 2-bromo-benzylamide]
[1]
  IC50: 7.23 µM
[2]
  IC50: 2.24 µM

## O=C(NCc1ccccc1Cl)c1ccc2cnccc2n1 [[1,6]Naphthyridine-2-carboxylic acid 2-chloro-benzylamide]
[1]
  IC50: 3.83 µM
[2]
  IC50: 4.77 µM

## CCOc1ccccc1CNC(=O)c1ccc2cnccc2n1 [[1,6]Naphthyridine-2-carboxylic acid 2-ethoxy-benzylamide]
[1]
  IC50: 13 µM

## O=C(NCc1cccc(Cl)c1)c1ccc2cnccc2n1 [[1,6]Naphthyridine-2-carboxylic acid 3-chloro-benzylamide]
[1]
  IC50: 2.57 µM
[2]
  IC50: 0.61 µM

## COc1cccc(CNC(=O)c2ccc3cnccc3n2)c1 [[1,6]Naphthyridine-2-carboxylic acid 3-methoxy-benzylamide]
[1]
  IC50: 3.1 µM
[2]
  IC50: 3.34 µM

## O=C(NCc1ccc(Cl)cc1)c1ccc2cnccc2n1 [[1,6]Naphthyridine-2-carboxylic acid 4-chloro-benzylamide]
[1]
  IC50: 2.11 µM
[2]
  IC50: 2.05 µM

## COc1ccc(CNC(=O)c2ccc3cnccc3n2)cc1 [[1,6]Naphthyridine-2-carboxylic acid 4-methoxy-benzylamide]
[1]
  IC50: 5.12 µM
[2]
  IC50: 6.04 µM

## Cc1ccc(CNC(=O)c2ccc3cnccc3n2)cc1 [[1,6]Naphthyridine-2-carboxylic acid 4-methyl-benzylamide]
[1]
  IC50: 2.23 µM
[2]
  IC50: 1.28 µM

## O=C(NCc1ccc2c(c1)OCO2)c1ccc2cnccc2n1 [[1,6]Naphthyridine-2-carboxylic acid (benzo[1,3]dioxol-5-ylmethyl)-amide]
[1]
  IC50: 1.87 µM
[2]
  IC50: 1.46 µM

## O=C(NCc1ccccc1)c1ccc2cnccc2n1 [[1,6]Naphthyridine-2-carboxylic acid benzylamide]
[1]
  IC50: 7.68 µM
[2]
  IC50: 3.15 µM

## O=C(NCc1cccs1)c1ccc2cnccc2n1 [[1,6]Naphthyridine-2-carboxylic acid thiophen-2-yl-methylamide]
[1]
  IC50: 7.84 µM
[2]
  IC50: 1.97 µM
